Data as given in US8501911B2, “Methods of reducing inflammation and mucus hypersecretion” (Biomarck Pharmaceuticals, Ltd, priority 1999, dated 2013).
Residues, ends and D or L forms follow the SMILES beside them. *: point of attachment. Myristoyl = CCCCCCCCCCCCCC(=O)*

Legend:
NHBE cells = assay: Mucin secretion from NHBE cells exposed to kinase activators/reagents alone (ELISA); assay type: cell-based, human; conditions: 15 min
Protocol: To determine the potential role of PKC and/or PKG in the mucin secretory process, NHBE cells were exposed to the following two specific protein kinase activators: the phorbol ester, phorbol 12-myristate 13-acetate (PMA), for activation of PKC, and the nonhydrolyzable cGMP analogue, 8-Br-cGMP, for activation of PKG.
NHBE Cell Culture—Expansion, cryopreservation, and culture of NHBE cells in the air/liquid interface were performed as described previously. See, Krunkosky et al. Briefly, NHBE cells (Clonetics, San Diego, Calif.) were seeded in vented T75 tissue culture flasks (500 cells/cm^2) and cultured until cells reached 75-80% confluence. Cells were then dissociated by trypsin/EDTA and frozen as passage-2. Air/liquid interface culture was initiated by seeding passage-2 cells (2×10^4 cells/cm^2) in […]® clear culture inserts (Costar, Cambridge, Mass.) that were thinly coated with rat tail collagen, type 1 (Collaborative Biomedical, Bedford, Mass.). Cells were cultured submerged in medium in a humidified 95% air, 5% CO2 environment for 5-7 days until nearly confluent. At that time, the air/liquid interface was created by removing the apical medium and feeding cells basalaterally. Medium was renewed daily thereafter. Cells were cultured for an additional 14 days to allow for full differentiation.
Measurement of Mucin Secretion by ELISA—Before collection of “base line” and “test” mucin samples, the accumulated mucus at the apical surface of the cells was removed by washing with phosphate-buffered saline, pH 7.2. To collect the base-line secretion, cells were incubated with medium alone, and secreted mucin in the apical medium was collected and reserved. Cells were rested for 24 h and then exposed to medium containing the selected stimulatory and/or inhibitory reagents (or appropriate controls), after which secreted mucin was collected and reserved as the test sample. Incubation times for the base line and the test were the same but varied depending on the test reagent utilized. Both base line and test secretions were analyzed by ELISA using an antibody capture method as known in the art. See, e.g., Harlow et al., Antibodies: A Laboratory Manual, pp. 570-573, Cold Spring Harbor Laboratory, Cold Spring Harbor, N.Y. (1988). The primary antibody for this assay was 17Q2 (Babco, Richmond, Calif.), a monoclonal antibody that reacts specifically with a carbohydrate epitope on human airway mucins. […] Wright et al., Am. J. Physiol. 271, L854-L861 (1996). Levels of mucin secretion were reported as percentage of the medium control.
Mucus secreted from the airway epithelial cells in vitro after stimulation by activators was assessed using an ELISA (antibody capture method) (E. Harlow, D. Lane. “Antibodies: A Laboratory Manual.” New York: Cold Spring Harbor Laboratory Press, 1988), wherein the collected mucus is bound directly to the ELISA plate. Mucus was detected using an antibody raised against monkey airway mucus (Lin et al. Am J Respir Cell Mol Biol 1:41, 1989).

[1] = system: MARCKS-related mucus secretion; assay: Inhibition of MARCKS-related mucus (mucin) secretion, Table 1; assay type: cell-based; conditions: at 100 μM of test peptide
HL-60 clone 15 cells = assay: Inhibition of eosinophil peroxidase (EPO) release from HL-60 clone 15 cells; assay type: cell-based, human; conditions: at 50 μM of test peptide; 100 nM PMA 2 hours
Text: The human promyelocytic cell line (Fischkoff S A, Graded increase in probability of eosinophilic differentiation of HL-60 promyelocytic leukemia cells induced by culture under alkaline conditions. Leuk. Res., 12:679-686, 1988; Rosenberg H F, Ackerman S J, Tenen D G. Human eosinophil cationic protein: molecular cloning of a cytotoxin and helminthotoxin with ribonuclease activity. J. Exp. Med., 170:163-176, 1989), HL-60 clone 15, is eosinophil-like promyelocytic human cell line which was purchased from American Type Culture Collection (ATCC) Rockville, Md. (catalog #CRL-1964). The cells were maintained in medium consisting of RPMI 1640 with glutamine supplemented with 10% heat inactivated fetal bovine serum (Gibco, Carlsbad, Calif.), 50 IU/mL penicillin, 50 μg/mL streptomycin, and 25 mM HEPES buffer, pH 7.8 at 37° C. in an atmosphere containing 5% CO2. Final differentiation of an eosinophil-like phenotype was initiated by culturing the cells at 5×10^5 cells/mL in the above medium containing 0.5 mM butyric acid (Sigma-Aldrich) for 5 days as previously described by Tiffany H L, Li F, and Rosenberg H F, Hyperglycosylation of eosinophil ribonuclease in a promyelocytic leukemia cell line and in differentiated peripheral blood progenitor cells J. Leukoc. Biol. 58: 49-54, 1995; and by Tiffany H L, Alkhatib G, Combadiere C, Berger E A, and Murphy P M., CC Chemokine receptors are differentially regulated by IL-5 during maturation of eosinophilic HL-60 cells. J. Immunol. 160:1385-1392, 1998. The cells were washed and resuspended at 2.5×10^6 per mL in phenol free RPMI-1640 (Cellgro; Mediatech Inc.). Aliquots of cells in 15 mL plastic tubes were preincubated with indicated concentration of test peptide (dissolved in PBS, pH 7.0) for 10 minutes followed by treatment of the cells with 100 nM PMA for 2 hours. The reaction was terminated by placing the tubes on ice and centrifugation of cells at 400 g for 5 min at 4° C. The eosinophil peroxidase (EPO) activity released by HL-60 clone 15 cells was assayed using TMB according to a previously established technique Paige et al (see above) and by Lacy P, Mahmudi-Azer S, Bablitz B, Hagen S C, Velazquez J R, Man S F, Moqbel R. Rapid mobilization of intracellularly stored RANTES in response to interferon-gamma in human eosinophils. Blood 94:23-32, 1999. Briefly, add 50 μL aliquots of the supernatant to 96-well microtiter plate followed by addition of 100 μL of the tetramethylbenzidine (TMB) substrate solution and incubate at room temperature for 15 minutes. The reaction was terminated by addition of 50 μL of 1.0 M sulfuric acid and absorbance was read at 450 nm in a spectrophotometric microplate reader (Molecular Devices, Sunnyvale, Calif.). The amount of secreted EPO was expressed as percentage of total content using the amount obtained in the same number of triton X-100-lysed cells.
Because standard EPO from HL-60 clone 15 cells was not available to use for quantification, we measured both released and intracellular (from lysed cells) levels of EPO, and expressed the released EPO as a percentage of total (intracellular and released) for each. To measure intracellular EPO in HL-60 clone 15 cells, appropriate aliquots of 0.1% triton X-100-lysed cells were taken for quantification of intracellular EPO as described above. All data are expressed as percentage of control to minimize variability between cultures.

U937 cells = assay: Inhibition of lysozyme release from U937 cells; assay type: cell-based, human; conditions: at 50 μM of test peptide; 100 nM PMA
Protocol: U937 is a monocyte-like human cell line which was purchased from American Type Culture Collection (ATCC) Rockville, Md. (catalog #CRL-15932). The cells were maintained in medium consisting of RPMI 1640 with glutamine supplemented with 10% heat inactivated fetal bovine serum (Gibco, Carlsbad, Calif.), 50 IU/mL, penicillin, 50 μg/mL streptomycin at 37° C. in an atmosphere containing 5% CO2. U937 cells were washed and resuspended at 2.5×10^6 cells/mL in phenol red free RPMI-1640 medium (Cellgro, Mediatech Inc.). Aliquots of cells in 15 mL plastic tubes were preincubated with indicated concentrations of test peptides (dissolved in PBS, pH 7.0) for 10 min at 37° C. The cells were then stimulated with 100 nM PMA for 1 hour. The cells were then centrifuged at 400×g for 5 min at 4° C. Lysozyme released from U937 cells was measured using spectrophotometric assay as described previously by Ralph et al., 1976. (Ralph P, Moore M A S, and Nilsson K. Lysozyme synthesis by established human and murine histocytic lymphoma cell lines. J. Exp. Med. 143:1528-33, 1976). Briefly. 100 μL of supernatants were placed in a 96-well microtiter plate and mixed with 100 μL of a Micrococcus lysodeikticus (Sigma-Aldrich) suspension (0.3 mg/mL in 0.1 M sodium phosphate buffer, pH 7.0), incubated for […] at room temperature and decrease in absorbance at 450 nm was measured. Chicken egg white lysozyme (EMD Biosciences) was used as a standard.

[2] = Solubility in 0.5 N saline; assay type: physicochemical; conditions: in 0.5 N Saline at pH 6.5
human neutrophils = assay: Human neutrophil chemotactic migration assay; assay type: cell-based; conditions: test peptide 50 μM; for Neutrophil Migration (% Inhibition), LTB4: LTB4 100 nM; for Neutrophil Migration (% Inhibition), LTB4 / Neutrophil Migration (% Inhibition), fMLP: 0 = inactive; for Neutrophil Migration (% Inhibition), PAF: PAF 100 nM; for Neutrophil Migration (% Inhibition), fMLP: fMLP 100 nM
Protocol: Human neutrophils were isolated from heparinized whole blood collected from healthy adult donors via cephalic venipuncture by a slightly modified method as described by Akasaki et al., 1999 (Akasaki T, Koga H, and Sumimoto H., Phosphoinositide 3-kinase-dependent and -independent activation of the small GTPase Rac2 in human neutrophils, J. Biol. Chem. 274:18055-18059, 1999). The blood was mixed with dextran (final concentration 1.4% dextran) and then allowed to settle for 60 minutes, after which time the leukocyte rich plasma was collected and layered onto 5 mL of Ficoll-Paque PLUS in 15 ml, conical tubes. The plasma was centrifuged at 1800 rpm for 20 minutes at room temperature. The residual erythrocytes were lysed utilizing a hypotonic saline and the remaining neutrophils were re-suspended in Hank's balanced salt solution containing 20 mM HEPES and 8.9 mM sodium bicarbonate without calcium or magnesium (HBSS), yielding neutrophils that were greater than 98% pure and greater than 99% viable.
Neutrophil migration assay was performed according to the method described by Frevert C W, Wong V A, Goodman R B, Goodwin R, and Martin T R., Rapid fluorescence-based measurement of neutrophil migration in vitro, J. Immunol. Methods, 213:41-52, 1998. Human neutrophils were labeled with the fluorescent dye calcein for 30 minutes at room temperature. Cells were then washed and resuspended in a migration buffer containing HBSS with 2% FCS. Cells were treated with buffer alone or with the indicated test peptide (50 μM) for 30 minutes at 37° C. Treated cells (1×10^4 cells) were then placed on the upper side of a ChemoTx® chemotaxis plate (Neuroprobe, Gaithersburg, Md.) membrane (2 μm pore size). Lower wells of the plate were filled with migration buffer alone or with buffer containing fMLP (100 nM), LTB4 (100 nM), or PAF (100 nM). Wells containing 1×10^4 labeled cells were used as standards to calculate migration percentage. Cells were allowed to migrate for 1 hour at 37° C. After incubation, cells on the top of the filter were washed away with PBS. Followed by this, 0.5 mM EDTA was added to the top of the filter for 5 min to detach adherent cells and the membrane was again washed. The plate was then centrifuged at 1000 rpm for 1 min. The filter was removed and the fluorescence was measured in the lower wells (485 nm excitation, 530 nm emission wavelength) using an fMax fluorescence plate reader (Molecular Devices, Sunnyvale, Calif.). Percent migration was determined by dividing the fluorescence of each well by the fluorescence of the standard wells containing 1×10^4 labeled cells. A lesser number of migrated neutrophils in the bottom compartment is indicative of the test peptide being an inhibitor of inflammation.

Structure (SMILES) | Mucin secretion as percent of control (NHBE cells; reagent 100 nM alone) | % Inhibition Mucin [1] | % Inhibition EPO (HL-60 clone 15 cells) | % Inhibition Lysozyme (U937 cells) | solubility [2] | Neutrophil Migration (% Inhibition), LTB4 (human neutrophils) | Neutrophil Migration (% Inhibition), PAF (human neutrophils) | Neutrophil Migration (% Inhibition), fMLP (human neutrophils) | Mucin secretion as percent of control (NHBE cells; reagent 1 μM alone) | Mucin secretion as percent of control (NHBE cells; reagent 1 μM together with PMA 100 nM)
CCCCCCCCCCCCCC(=O)O[C@@H]1[C@@H](C)[C@@]2(O)[C@@H](C=C(CO)C[C@@]3(O)C(=O)C(C)=C[C@@H]23)[C@@H]2C(C)(C)[C@]12OC(C)=O [4-alpha-PMA] | 104% | – | – | – | – | – | – | – | – | –
CCCCCCCCCCCCCC(=O)NCC(=O)N[C@@H](C)C(=O)N[C@@H](CCC(N)=O)C(=O)N[C@@H](Cc1ccccc1)C(=O)N[C@@H](CO)C(=O)N[C@@H](CCCCN)C(=O)N[C@H](C(=O)N[C@@H](C)C(=O)N[C@@H](C)C(=O)N[C@@H](CCCCN)C(=O)NCC(=O)N[C@@H](CCC(=O)O)C(=O)N[C@@H](C)C(=O)N[C@@H](C)C(=O)N[C@@H](C)C(=O)N[C@@H](CCC(=O)O)C(=O)O)[C@@H](C)O [SEQ ID NO: 9, N-myristoyl-GAQFSKTAAKGEAAAE] (Myristoyl-GAQFSKTAAKGEAAAE-OH; C-terminus assumed) | – | 68% | 30.3% | 99% | > 2000 µg/mL | 90.3% | 72.7% | 84.8% | – | –
Nc1nc2c(nc(Br)n2[C@@H]2O[C@@H]3COP(O)(=S)O[C@H]3[C@H]2O)c(=O)[nH]1 (some centres unmarked) [Rp-8-Br-cGMP] | – | – | – | – | – | – | – | – | 100% | 123%
CCCCCCCCCCCCCC(=O)NCC(=O)N[C@@H](C)C(=O)N[C@@H](CCC(N)=O)C(=O)N[C@@H](Cc1ccccc1)C(=O)N[C@@H](CO)C(=O)N[C@@H](CCCCN)C(=O)N[C@H](C(=O)N[C@@H](C)C(=O)N[C@@H](C)C(=O)N[C@@H](CCCCN)C(=O)NCC(=O)N[C@@H](CCC(=O)O)C(=O)N[C@@H](C)C(=O)N[C@@H](C)C(=O)N[C@@H](C)C(=O)N[C@@H](CCC(=O)O)C(=O)N[C@@H](CCCNC(=N)N)C(=O)N1CCC[C@H]1C(=O)NCC(=O)N[C@@H](CCC(=O)O)C(=O)O)[C@@H](C)O [SEQ ID NO: 5] (Myristoyl-GAQFSKTAAKGEAAAERPGE-OH; C-terminus assumed) | – | 77% | 33.6% | 99% | < 5000 µg/mL | 76.8% | 88.4% | 69.1% | – | –
